Source: EP4567035A1, “NOVEL COMPOUND AS HYPOXIA-INDUCIBLE FACTOR 1(HIF-1) INHIBITOR OR VASCULAR ENDOTHELIAL GROWTH FACTOR (VEGF) INHIBITOR, AND PHARMACEUTICAL COMPOSITION COMPRISING SAME” (Nextgen Bioscience Co., Ltd., priority 2022, dated 2024)
Read-outs that look alike come from different tables or passages of the source.

What was measured:
VEGF = test: Evaluation of VEGF protein secretion level (Human VEGF ELISA) in ARPE-19 cell medium under hypoxic conditions; type: cell-based
Summary of the method: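 Human ARPE-19 cells were pretreated 2 h with compound (0.1 nM–10 µM, in DMEM/F12 with 1% FBS), then held 24 h in hypoxia (1% O2, 5% CO2). Secreted VEGF in the supernatant was quantified by ELISA (A450). The value is the concentration range giving ≥50% VEGF reduction versus untreated control.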

HIF-1α = biological target: T1, HIF-1α (Homo sapiens, UniProt Q16665); test: Analysis of HIF-1α protein expression (Western blot) in ARPE-19 cells under mixed hypoxic condition; type: cell-based; conditions: concentration range at which HIF-1α expression is reduced by 50% vs untreated control
T1 construct: endogenous in cells; host or cells: ARPE-19 (ATCC CRL-2302)
T1 sequence (Q16665 whole entry): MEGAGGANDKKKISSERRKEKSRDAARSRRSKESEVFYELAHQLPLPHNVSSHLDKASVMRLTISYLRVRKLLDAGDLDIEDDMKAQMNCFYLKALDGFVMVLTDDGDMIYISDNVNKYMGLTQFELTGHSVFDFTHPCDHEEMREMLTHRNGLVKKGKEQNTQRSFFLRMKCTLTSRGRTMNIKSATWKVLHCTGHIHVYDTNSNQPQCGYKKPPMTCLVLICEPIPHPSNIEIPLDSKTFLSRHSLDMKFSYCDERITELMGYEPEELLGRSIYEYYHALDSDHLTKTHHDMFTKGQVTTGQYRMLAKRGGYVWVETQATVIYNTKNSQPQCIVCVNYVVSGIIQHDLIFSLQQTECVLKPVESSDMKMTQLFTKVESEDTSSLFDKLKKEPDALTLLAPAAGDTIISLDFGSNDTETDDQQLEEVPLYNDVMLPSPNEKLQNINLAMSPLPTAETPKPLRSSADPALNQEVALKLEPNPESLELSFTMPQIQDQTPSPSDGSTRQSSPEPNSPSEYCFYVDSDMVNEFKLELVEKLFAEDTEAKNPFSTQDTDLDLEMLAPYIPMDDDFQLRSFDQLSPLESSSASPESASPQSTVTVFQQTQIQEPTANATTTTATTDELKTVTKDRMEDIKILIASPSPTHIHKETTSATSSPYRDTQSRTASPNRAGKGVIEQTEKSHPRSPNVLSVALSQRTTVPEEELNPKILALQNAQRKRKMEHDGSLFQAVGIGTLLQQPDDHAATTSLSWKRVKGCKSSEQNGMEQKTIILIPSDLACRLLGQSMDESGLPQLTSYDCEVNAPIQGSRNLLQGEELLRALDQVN
Summary of the method: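 ARPE-19 cells were pretreated 16 h or 2 h with compound (0.1 nM–10 µM, serum-free DMEM/F12), then held 1 h or 24 h in mixed hypoxia (1% O2 plus CoCl2). HIF-1α was quantified by Western blot against β-actin; the concentration range giving ≥50% reduction vs untreated control was reported.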

[1] = ARPE-19 cells, pretreated 2 hours, 24 hours hypoxic conditions, ELISA, read-out: concentration at which the secreted VEGF protein level was suppressed to less than 50%
[2] = ARPE-19 cells, pretreated 2 hours, 24 hours hypoxic conditions, secreted VEGF in medium supernatant by ELISA, concentration range reducing VEGF by 50% vs untreated control, read-out: IC50 VEGF
[3] = Experimental Example 2 (HIF-1α Western blot), read-out: concentration at which the expression level of VEGF was suppressed to less than 50%
[4] = values marked * in the table, mixed hypoxic condition (1% oxygen + CoCl2) for 24 hours, read-out: IC50 HIF-1α, Hypoxia(24h)
[5] = mixed hypoxic condition (1% oxygen + CoCl2) for 1 hour, read-out: IC50 HIF-1α Hypoxia (1 hour)

SMILES | IC50 (VEGF; [1]) | IC50 (VEGF; [2]) | IC50 (VEGF; [3]) | DC50 (HIF-1α; [4]) | DC50 (HIF-1α; [5])
NC(=O)c1cccc(-n2cc(-c3cc(F)cc(CNC(=O)c4ncnc5nc(C6CCCC6)[nH]c45)c3)cn2)c1 [Example 37, N-(3-(1-(3-carbamoylphenyl)-1H-pyrazol-4-yl)-5-fluorobenzyl)-8-cyclopentyl-7H-purine-6-carboxamide] | < 100 nM | < 100 nM | < 100 nM | < 100 nM | 
CC1(C)CC(c2nc3ncnc(C(=O)NCc4cc(F)cc(-c5cnn(-c6ccc(F)cc6)c5)c4)c3[nH]2)C1 [Example 97, 8-(3,3-Dimethylcyclobutyl)-N-(3-fluoro-5-(1-(4-fluorophenyl)-1H-pyrazol-4-yl)benzyl)-7H-purine-6-carboxamide] |  | 100 to 1000 nM |  | 100 to 1000 nM | 
O=C(NCc1cc(F)cc(-c2cnn(-c3ccc(Cl)cc3)c2)c1)c1ncnc2nc(C3CCCC3)[nH]c12 [Example 58, N-(3-(1-(4-chlorophenyl)-1H-pyrazol-4-yl)-5-fluorobenzyl)-8-cyclopentyl-7H-purine-6-carboxamide] |  | 100 to 1000 nM |  | < 100 nM | 
O=C(NCc1cc(F)cc(Nc2ccc(F)cc2)c1)c1ncnc2nc(C3CCCC3)[nH]c12 [Example 21, 8-Cyclopentyl-N-(3-fluoro-5-((4-fluorophenyl)amino)benzyl)-7H-purine-6-carboxamide] |  | 100 to 1000 nM |  |  | < 100 nM
O=C(NCc1cc(F)cc(-c2cnn(-c3ccccc3)c2)c1)c1ncnc2nc(C3CCCC3)[nH]c12 [Example 7, 8-Cyclopentyl-N-(3-fluoro-5-(1-phenyl-1H-pyrazol-4-yl)benzyl)-7H-purine-6-carboxamide] |  | 100 to 1000 nM |  |  | < 100 nM
O=C(NCc1cc(F)cc(-c2cnn(-c3ccc(F)cc3)c2)c1)c1ncnc2nc(C3CC4(CCC4)C3)[nH]c12 [Example 100, N-(3-fluoro-5-(1-(4-fluorophenyl)-1H-pyrazol-4-yl)benzyl)-8-(spiro[3.3]heptan-2-yl)-7H-purine-6-carboxamide] |  | 1000 to 10000 nM |  | 1000 to 10000 nM | 
O=C(NCc1cc(F)cc(-c2cnn(-c3ccc(F)c(Cl)c3)c2)c1)c1ncnc2nc(C3CCCC3)[nH]c12 [Example 87, N-(3-(1-(3-chloro-4-fluorophenyl)-1H-pyrazol-4-yl)-5-fluorobenzyl)-8-cyclopentyl-7H-purine-6-carboxamide] |  | 100 to 1000 nM |  | < 100 nM | 
O=C(NCc1cc(F)cc(-c2cnn(-c3cc[s+]([O-])c3)c2)c1)c1ncnc2nc(C3CCCC3)[nH]c12 (stereo not shown) [Example 143, 8-Cyclopentyl-N-(3-fluoro-5-(1-(1-oxidothiophen-3-yl)-1H-pyrazol-4-yl)benzyl)-7H-purine-6-carboxamide] |  | > 10000 nM |  | 1000 to 10000 nM | 
O=C(NCc1cc(F)cc(-c2cn[nH]c2)c1)c1ncnc2nc(C3CCCC3)[nH]c12 [Example 11, 8-Cyclopentyl-N-(3-fluoro-5-(1H-pyrazol-4-yl)benzyl)-7H-purine-6-carboxamide] | < 100 nM | < 100 nM | < 100 nM |  | < 100 nM
CS(=O)(=O)c1cc(Br)ccc1-n1cc(-c2cc(F)cc(CNC(=O)c3ncnc4nc(C5CCCC5)[nH]c34)c2)cn1 [Example 59, N-(3-(1-(4-bromo-2-(methylsulfonyl)phenyl)-1H-pyrazol-4-yl)-5-fluorobenzyl)-8-cyclopentyl-7H-purine-6-carboxamide] |  | 100 to 1000 nM |  | 100 to 1000 nM | 
N#Cc1ccc(Nc2cc(F)cc(CNC(=O)c3ncnc4nc(C5CCCC5)[nH]c34)c2)cc1 [Example 122, N-(3-((4-cyanophenyl)amino)-5-fluorobenzyl)-8-cyclopentyl-7H-purine-6-carboxamide] |  | < 100 nM |  | < 100 nM | 
[2H]c1c([2H])c([2H])c(-n2cc(-c3cc(F)cc(CNC(=O)c4ncnc5nc(C6CCCC6)[nH]c45)c3)cn2)c([2H])c1[2H] [Example 145, 8-Cyclopentyl-N-(3-fluoro-5-(1-phenyl-d5-1H-pyrazol-4-yl)benzyl)-7H-purine-6-carboxamide] |  | 100 to 1000 nM |  | < 100 nM | 
